Data taken from US12419865B2 (priority 2018, dated 2025).
Where two headings read alike, the source gives them in different places.

How the values were obtained:
LASV-p = assay: microbe, parasite or virus in culture; type: cell-based, Lassa (LASV); settings: Vesicular stomatitis virus, Vero, read-out: LASV-p EC50
TCRV-p = assay: organism not typed; type: cell-based; settings: read-out: TCRV-p EC50
JUNV-p = assay: organism not typed; type: cell-based, Junin (JUNV); settings: Vero, read-out: JUNV-p EC50
MACV-p = assay: organism not typed; type: cell-based, Machupo (MACV); settings: Vero, read-out: MACV-p EC50
VSV-p = assay: microbe, parasite or virus in culture; type: cell-based; settings: Vesicular stomatitis virus, Vero, read-out: VSV-p EC50
in vitro = settings: African green monkey
[1] = guinea pig, 1 h, pH 7.4
[2] = 1 h, pH 7.4
[3] = 1 h, pH 7.4; remark: listed apart in the source
[4] = tested on: native replicating Tacaribe (TCRV) virus; assay: microbe, parasite or virus in culture; type: cell-based; settings: Mammarenavirus tacaribeense, Vero, 120 h, read-out: TCRV EC50
replicative LASV = assay: microbe, parasite or virus in culture; type: cell-based, Lassa Virus; settings: for EC90: Mammarenavirus lassaense

Compound | EC50 (LASV-p) [nM] | EC50 (TCRV-p; Vero) [nM] | EC50 (JUNV-p) [nM] | EC50 (MACV-p) [nM] | EC50 (VSV-p) [nM] | CC50 (in vitro) [nM] | Percent parent compound remaining at 60 minutes in liver microsomes, Guinea [1] [%] | Percent parent compound remaining at 60 minutes in liver microsomes, Mouse [2] [%] | Percent parent compound remaining at 60 minutes in liver microsomes, Human [3] [%] | EC50 (TCRV-p) [nM] | EC50 [4] [nM] | Sl90 (replicative LASV) | EC90 (replicative LASV; Vero, read-out: VYR Assay EC90) [nM] | EC90 (replicative LASV; read-out: EC90 in the VYR assay format) [nM]
CC(C)Oc1ccc(-c2cc3c(cc2C(N)=O)nnn3-c2ccc(OC(C)C)cc2)cc1 [Example C21, 1,6-bis(4-isopropoxyphenyl)-1H-benzo[d][1,2,3]triazole-5-carboxamide] | > 25 | > 25 | > 25 | > 25 | > 10000 | – | – | – | – | – | – | – | – | –
Cc1nc2ncc(-c3ccc(OC(C)(C)C)cc3)n2cc1-c1ccc(OC(C)C)cc1 [Example D28, 3-(4-(tert-butoxy)phenyl)-6-(4-isopropoxyphenyl)-7-methylimidazo[1,2-a]pyrimidine] | 0.3 | 0.15 | 0.4 | 0.31 | > 10000 | 12300 | – | – | – | – | – | – | – | –
Cc1nc2ncc(-c3ccc(C(C)(C)O)cc3)n2cc1-c1ccc(OC(C)C)cc1 [Example D29, 2-(4-(6-(4-isopropoxphenyl)-7-methylimidazo[1,2-a]pyrimidin-3-yl)phenyl)propan-2-ol] | 1.84 | 1.27 | 1.03 | 0.87 | > 10000 | 42100 | – | – | – | – | – | – | – | –
C=Cc1cc2nnn(-c3ccc(OC(C)C)cc3)c2cc1-c1ccc(OC(C)C)cc1 [Example C25, 1,6-bis(4-isopropoxyphenyl)-5-vinyl-1H-benzo[d][1,2,3]triazole] | 6.78 | 8.01 | 1.47 | 0.3 | > 10000 | 3870 | – | – | – | – | – | – | – | –
COc1cc2nnn(-c3ccc(OC(C)C)cc3)c2cc1-c1ccc(OC(C)C)cc1 [Example C15, 1,6-bis(4-isopropoxyphenyl)-5-methoxy-1H-benzo[d][1,2,3]triazole] | 23.4 | 11.4 | 3.06 | 7.09 | > 10000 | 98400 | – | – | – | – | – | – | – | –
CC(C)Oc1ccc(-n2nnc3ccc(-c4cccc(OC(C)C)c4)cc32)cc1 [Example C18, 6-(3-isopropoxyphenyl)-1-(4-isopropoxyphenyl)-1H-benzo[d][1,2,3]triazole] | > 25 | > 25 | > 25 | > 25 | > 10000 | – | – | – | – | – | – | – | – | –
CC(C)Oc1ccc(-c2cc3c(cc2CO)nnn3-c2ccc(OC(C)C)cc2)cc1 [Example C19, (1,6-bis(4-isopropoxyphenyl)-1H-benzo[d][1,2,3]triazol-5-yl)methanol] | 22.5 | 8 | 0.75 | 3.82 | > 10000 | 81700 | – | – | – | – | – | – | – | –
CC(C)Oc1ccc(-n2nnc3ccc(-c4ccc(C(C)(C)O)cc4)cc32)cc1 [Example C16, 2-(4-(1-(4-isopropoxyphenyl)-1H-benzo[d][1,2,3]triazol-6-yl)phenyl)propan-2-ol] | 3.02 | 3.67 | 0.45 | 1.72 | > 10000 | 4120 | 61.9 | 57.4 | 72.3 | – | – | – | – | –
CC(C)Oc1ccc(-c2cc3c(cc2CN)nnn3-c2ccc(OC(C)C)cc2)cc1 [Example C22, (1,6-bis(4-isopropoxyphenyl)-1H-benzo[d][1,2,3]triazol-5-yl)methanamine] | > 25 | > 25 | > 25 | > 25 | > 10000 | – | – | – | – | – | – | – | – | –
Cc1cc2ncn(-c3ccc(OC(C)C)cc3)c2cc1-c1ccc(C(C)(C)O)cc1 [Example A3, 2-(4-(1-(4-isopropoxyphenyl)-5-methyl-1H-benzo[d]imidazol-6-yl)phenyl)propan-2-ol] | 0.75 | 0.24 | 0.4 | 0.17 | > 10000 | 4500 | 67.6 | 25.4 | 89.9 | 0.21 | 0.87 | – | – | –
Cc1cc2ncc(-c3ccc(C(C)(C)O)cc3)n2cc1-c1ccc(C(C)(C)O)cc1 [Example B9, 2,2′-((7-methylimidazo[1,2-a]pyridine-3,6-diyl)bis(4,1-phenylene))bis(propan-2-ol)] | > 25 | 16.1 | > 25 | > 25 | > 10000 | – | – | – | – | – | – | – | – | –
CCc1cc2nnn(-c3ccc(OC(C)C)cc3)c2cc1-c1ccc(OC(C)C)cc1 [Example C26, 5-ethyl-1,6-bis(4-isopropoxphenyl)-1H-benzo[d][1,2,3]triazole] | 3.9 | 5.92 | 0.1 | 0.04 | > 10000 | 3590 | – | – | – | – | – | – | – | –
CC(C)Oc1ccc(-c2cc3c(cc2F)nnn3-c2ccc(OC(C)C)cc2)cc1 [Example C13, 5-fluoro-1,6-bis(4-isopropoxyphenyl)-1H-benzo[d][1,2,3]triazole] | 4 | 1.53 | 0.27 | 0.66 | > 10000 | > 100000 | – | – | 79.5 | – | – | – | – | –
Cc1cc2ncc(-c3ccc(OC(C)C)cc3)n2cc1-c1ccc(C(C)(C)O)cc1 [Example B5, 2-(4-(3-(4-isopropoxyphenyl)-7-methylimidazo[1,2-a]pyridin-6-yl)phenyl)propan-2-ol] | 0.53 | 0.16 | 0.18 | 0.16 | > 10000 | 3870 | 7.4 | 16.4 | 86.7 | 0.1 | 0.88 | – | – | –
CC(C)Oc1ccc(-n2nnc3ccc(-c4cccc(C(C)(C)O)c4)cc32)cc1 [Example C17, 2-(3-(1-(4-isopropoxyphenyl)-1H-benzo[d][1,2,3]triazol-6-yl)phenyl)propan-2-ol] | 15.8 | > 25 | 12.2 | > 25 | > 10000 | 10500 | – | – | – | – | – | – | – | –
Cc1c(-c2ccc(OC(C)C)cc2)ccc2nnn(-c3ccc(OC(C)C)cc3)c12 [Example C14, 1,6-bis(4-isopropoxyphenyl)-7-methyl-1H-benzo[d][1,2,3]triazole] | 2.44 | 4.7 | 0.17 | 0.28 | > 10000 | > 100000 | >95 | >95 | >95 | – | – | – | – | –
Cc1nc2ncc(-c3ccc(OC(C)C)cc3)n2cc1-c1ccc(OC(C)C)cc1 [Example D27, 3,6-bis(4-isopropoxyphenyl)-7-methylimidazo[1,2-a]pyrimidine] | 0.75 | 0.2 | 0.78 | 0.85 | > 10000 | 2180 | – | – | – | – | – | – | – | –
CC(C)Oc1ccc(-c2ccc3nnn(-c4ccc(OC(C)C)cc4)c3c2F)cc1 [Example C12, 7-fluoro-1,6-bis(4-isopropoxyphenyl)-1H-benzo[d][1,2,3]triazole] | 1.31 | 15 | 0.15 | 0.55 | > 10000 | > 100000 | >95 | 90.3 | >95 | – | – | – | – | –
CC(C)Oc1ccc(-c2cc3c(cc2N)nnn3-c2ccc(OC(C)C)cc2)cc1 [Example C23, 1,6-bis(4-isopropoxyphenyl)-1H-benzo[d][1,2,3]triazol-5-amine] | 6.72 | 0.96 | 0.29 | 0.53 | > 10000 | 43000 | – | – | – | – | – | – | – | –
CC(C)Oc1ccc(-c2cc3c(cc2C(=O)O)nnn3-c2ccc(OC(C)C)cc2)cc1 [Example C20, 1,6-bis(4-isopropoxyphenyl)-1H-benzo[d][1,2,3]triazole-5-carboxylic acid] | > 25 | > 25 | > 25 | > 25 | > 10000 | – | – | – | – | – | – | – | – | –
COc1cc2nnn(-c3ccc(O)cc3)c2cc1-c1ccc(O)cc1 [Example C24, 4,4′-(5-methoxy-1H-benzo[d][1,2,3]triazole-1,6-diyl)diphenol] | 4.62 | 18.4 | 19 | > 25 | > 10000 | 32200 | – | – | – | – | – | – | – | –
[2H]C([2H])([2H])C([2H])(Oc1ccc(-c2cn3c(-c4ccc(OC(C)(C)C)cc4)cnc3cc2C)cc1)C([2H])([2H])[2H] [Example E30, 3-(4-(tert-butoxy)phenyl)-6-(4-(isopropoxy-d7)phenyl)-7-methylimidazo[1,2-a]pyridine] | 0.39 | – | 0.09 | 0.09 | – | 3800 | – | – | – | 0.2 | – | >1,510 | < 14 | < 14
COC(=O)c1cc2nnn(-c3ccc(OC(C)C)cc3)c2cc1-c1ccc(OC(C)C)cc1 [Example C10, methyl 1,6-bis(4-isopropoxyphenyl)-1H-benzo[d][1,2,3]triazole-5-carboxylate] | 20.6 | 12.3 | 11 | 4.05 | > 10000 | > 100000 | – | – | – | – | – | – | – | –
